Laboratory results: the NIST ThermoML archive (doi:10.1007/s10765-006-0095-5)

How the values were obtained:
[1] = refractive index (Na D-line) (dimensionless); xn = mol fraction of the nth substance listed; details: 101 kPa, Liquid
[2] = xn = mol fraction of the nth substance listed; details: 278.15 K, 101 kPa, Liquid

CCN(CC)CC [triethylamine] + c1ccccc1
refractive index, [1]
Details | 278.15 K | 283.15 K | 288.15 K | 293.15 K | 298.15 K | 303.15 K | 308.15 K | 313.15 K | 318.15 K
x2 = 0.1145 | 1.4149 | 1.4133 | 1.4113 | 1.409 | 1.4062 | 1.4038 | 1.4009 | 1.3988 | 1.3961
x2 = 0.2043 | 1.4197 | 1.418 | 1.416 | 1.4137 | 1.411 | 1.4088 | 1.4061 | 1.4043 | 1.4017
x2 = 0.3005 | 1.4261 | 1.4243 | 1.4224 | 1.4201 | 1.4173 | 1.4151 | 1.4125 | 1.4107 | 1.4082
x2 = 0.4005 | 1.4336 | 1.4318 | 1.43 | 1.4278 | 1.425 | 1.4228 | 1.4203 | 1.4185 | 1.4161
x2 = 0.5023 | 1.4421 | 1.4404 | 1.4387 | 1.4366 | 1.4338 | 1.4317 | 1.4293 | 1.4275 | 1.4252
x2 = 0.6037 | 1.4518 | 1.4501 | 1.4485 | 1.4465 | 1.4438 | 1.4418 | 1.4395 | 1.4378 | 1.4356
x2 = 0.7035 | 1.4625 | 1.4609 | 1.4594 | 1.4576 | 1.4549 | 1.4531 | 1.451 | 1.4495 | 1.4474
x2 = 0.8079 | 1.4756 | 1.474 | 1.4727 | 1.471 | 1.4683 | 1.4666 | 1.4647 | 1.4632 | 1.4613
x2 = 0.9069 | 1.4902 | 1.4886 | 1.4872 | 1.4856 | 1.4829 | 1.4812 | 1.4795 | 1.4779 | 1.4759

[2]
Details | mass density [kg/m3]
x2 = 0.1145 | 751.3
x2 = 0.2043 | 759.4
